From paper PMC12064818, “A general assay platform to study protein pharmacology using ligand-dependent structural dynamics” (Nature Communications, 2025)
“And” between values parts separate entries of the source, which are not always exact repeats. Identical values can stand only once.

What was measured:
[1] = biological target: FLuc-N-HiBiT (firefly luciferase) (Photinus pyralis, UniProt P08659, form not given/L550V); test: Firefly luciferase (FLuc) enzymatic luminescence assay, FLuc-N-HiBiT; assay type: biochemical; settings: for Functional Enzymatic Assay: 10 nM FLuc-N-HiBiT, replicates; for Functional Enzymatic Assay / 10 nM FLuc-N-HiBiT Enz, Mean: Log [PTC124]
Sequence of FLuc-N-HiBiT (firefly luciferase) (P08659 2-550 L550V, form open): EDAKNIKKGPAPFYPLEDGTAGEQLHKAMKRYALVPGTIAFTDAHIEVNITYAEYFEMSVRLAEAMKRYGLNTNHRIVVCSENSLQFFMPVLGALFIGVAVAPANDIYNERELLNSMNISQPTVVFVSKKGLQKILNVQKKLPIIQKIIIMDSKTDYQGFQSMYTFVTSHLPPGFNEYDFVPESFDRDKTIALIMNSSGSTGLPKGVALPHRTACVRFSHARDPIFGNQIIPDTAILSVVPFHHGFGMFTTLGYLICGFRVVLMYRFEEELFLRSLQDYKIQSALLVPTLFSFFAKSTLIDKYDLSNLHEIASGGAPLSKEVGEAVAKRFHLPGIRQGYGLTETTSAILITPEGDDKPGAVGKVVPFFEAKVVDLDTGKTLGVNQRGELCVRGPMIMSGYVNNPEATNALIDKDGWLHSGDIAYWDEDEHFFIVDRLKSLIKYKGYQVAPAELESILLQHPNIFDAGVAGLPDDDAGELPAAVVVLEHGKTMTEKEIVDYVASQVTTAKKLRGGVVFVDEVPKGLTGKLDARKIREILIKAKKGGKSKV
Procedure: The enzyme activity of FLuc-N-HiBiT, FLuc-C-HiBiT, and FLuc-C-NLuc was measured similar to P. pyralis firefly luciferase (FLuc) as previously described. […] Compounds and controls were added to each plate as described in Supplementary Data 8 with a Hornet pintool system (Wako Automation). Compounds were incubated with respective enzymes for 30–60 min at room temperature protected from light and covered by solid metal lid to prevent evaporation. […] Luciferin was incubated with FLuc enzyme for 5 min before FLuc activity was then measured on a ViewLux CCD imager (PerkinElmer), with exposure times up to ten seconds with medium to high gain settings. Data were normalized to average no enzyme control as 100% enzyme inhibition and average DMSO neutral control. See Supplementary Table 4 for additional details.
Supplementary Table 4. Protocol for Firefly luciferase (FLuc) and NanoLuc (NLuc) enzymatic
Supplementary Table 4: Protocol for Firefly luciferase (FLuc) and NanoLuc (NLuc) enzym atic lum inescence assay
Firefly luciferase (FLuc) enzym atic lum inescence assay
Sequence Param eter Value Description
No enzym e control (colum n 1) and enzym e solution (1- 10 nM FLuc enzym e) in FLuc assay
1 Reagent 4 µLbuffer; white/solid bottom , m edium bind, high base plates (Greiner), dispensed with BioRaptr
com pounds transferred to respective colum ns with Pintool
2b Test Com pounds 23 nLconcentration range) in colum ns 5- 48; com pounds transferred to respective wells with
3 Incubation 30 m in Incubate enzym e + com pounds at am bient tem p for 30 m in, protected from light
4 Reagent 3 µLAdd 3 µL of D-luciferin substrate solution to each well (final concentration 10 µM); dispensed
5 Detector ViewLux Read plate lum inescence (Exposure = 1- 10 sec; Gain = Medium -high; Speed = Slow;
Dispensing solution was diluted in 1X PBS, pH 7.4. […]

[2] = biological target: FLuc-C-HiBiT (firefly luciferase) (Photinus pyralis, UniProt P08659, form not given/L550V); test: Firefly luciferase (FLuc) enzymatic luminescence assay, FLuc-C-HiBiT; assay type: biochemical; settings: for 10 nM FLuc-C-HiBiT Enz, Mean: Log [PTC124]
Sequence of FLuc-C-HiBiT (firefly luciferase) (P08659 2-550 L550V, form open): as above
Outline: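 Compounds were preincubated 30–60 min at room temperature in the dark with 1–10 nM fusion enzyme in PBS pH 7.4. D-luciferin was then added (10 µM final) for 5 min before luminescence was imaged. Inhibition was normalized to no-enzyme control (100%) and DMSO neutral control.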

[3] = FLuc-C-HiBiT (10 nM) + 10 mM ATP, 32.8 µM ligand

For `O=C(O)c1cccc(-c2noc(-c3ccccc3F)n2)c1` [PTC124, reference compound], the “Functional Enzymatic Assay” value ([1]; M -4.48) was 7.2 RLU and 7.9 RLU (2×) and 7.3 RLU and 6.7 RLU and 7.1 RLU, the “Functional Enzymatic Assay” value ([1]; M -4.96) was 8.6 RLU and 8.1 RLU and 7.7 RLU and 8.3 RLU and 7.1 RLU and 7.2 RLU and the “Functional Enzymatic Assay” value ([1]; M -5.44) was 8.3 RLU (2×) and 8.6 RLU and 8.4 RLU and 7.5 RLU (2×). For the same molecule, the “Functional Enzymatic Assay” value ([1]; M -5.91) was 8.7 RLU (2×) and 9.2 RLU and 8.9 RLU and 8.3 RLU and 8.5 RLU, the “Functional Enzymatic Assay” value ([1]; M -6.39) was 10.6 RLU and 10.5 RLU and 10.2 RLU (2×) and 10.1 RLU and 9.7 RLU and the “Functional Enzymatic Assay” value ([1]; M -6.87) was 14.3 RLU (2×) and 14.5 RLU and 14.7 RLU and 15.0 RLU and 14.8 RLU. For the same molecule, the “Functional Enzymatic Assay” value ([1]; M -7.35) was 29.6 RLU and 29.7 RLU and 30.2 RLU and 33.4 RLU and 41.4 RLU and 37.0 RLU, the “Functional Enzymatic Assay” value ([1]; M -7.82) was 144.5 RLU and 149.3 RLU and 178.2 RLU and 166.0 RLU and 190.3 RLU and 174.6 RLU and the “Functional Enzymatic Assay” value ([1]; M -8.30) was 301.7 RLU and 309.5 RLU and 327.2 RLU and 328.1 RLU and 308.7 RLU and 316.4 RLU. For the same molecule, the “Functional Enzymatic Assay” value ([1]; M -8.78) was 370.7 RLU and 364.6 RLU and 370.3 RLU and 363.9 RLU and 364.3 RLU and 365.0 RLU, the “Functional Enzymatic Assay” value ([1]; M -9.25) was 391.9 RLU and 389.1 RLU and 396.6 RLU and 382.9 RLU and 381.5 RLU and 379.2 RLU and the “Functional Enzymatic Assay” value ([1]; M -9.73) was 393.8 RLU and 390.8 RLU and 393.2 RLU and 390.0 RLU and 387.4 RLU and 383.0 RLU. For the same molecule, the “Functional Enzymatic Assay” value ([1]; M -10.21) was 400.1 RLU and 398.5 RLU and 399.0 RLU and 394.9 RLU and 391.0 RLU and 381.4 RLU, the “Functional Enzymatic Assay” value ([1]; M -10.69) was 399.5 RLU and 393.3 RLU and 400.5 RLU and 393.7 RLU and 383.2 RLU and 377.0 RLU and the “Functional Enzymatic Assay” value ([1]; M -11.16) was 392.3 RLU and 386.5 RLU and 400.5 RLU and 393.0 RLU and 385.0 RLU and 368.5 RLU. The “Functional Enzymatic Assay” value ([1]; M -11.64) was 389.5 RLU and 376.4 RLU and 395.8 RLU and 380.1 RLU and 381.7 RLU and 371.3 RLU, the “pIC50, FLuc-N-HiBiT (10 nM)” value ([1]; 10 μM ATP) was 7.68 ± 0.02 and the “10 nM FLuc-N-HiBiT Enz, Mean” value ([1]; M (Enz) -4.24) was 7.3 RLU. The “10 nM FLuc-N-HiBiT Enz, Mean” value ([1]; M (Enz) -4.72) was 7.8 RLU, the “10 nM FLuc-N-HiBiT Enz, Mean” value ([1]; M (Enz) -5.19) was 8.1 RLU and the “10 nM FLuc-N-HiBiT Enz, Mean” value ([1]; M (Enz) -5.67) was 8.7 RLU. The “10 nM FLuc-N-HiBiT Enz, Mean” value ([1]; M (Enz) -6.15) was 10.2 RLU, the “10 nM FLuc-N-HiBiT Enz, Mean” value ([1]; M (Enz) -6.63) was 14.6 RLU and the “10 nM FLuc-N-HiBiT Enz, Mean” value ([1]; M (Enz) -7.10) was 33.5 RLU. For the same molecule, the “10 nM FLuc-N-HiBiT Enz, Mean” value ([1]; M (Enz) -7.58) was 167.1 RLU, the “10 nM FLuc-N-HiBiT Enz, Mean” value ([1]; M (Enz) -8.06) was 315.3 RLU and the “10 nM FLuc-N-HiBiT Enz, Mean” value ([1]; M (Enz) -8.53) was 366.5 RLU. The “10 nM FLuc-N-HiBiT Enz, Mean” value ([1]; M (Enz) -9.01) was 386.9 RLU, the “10 nM FLuc-N-HiBiT Enz, Mean” value ([1]; M (Enz) -9.49) was 389.7 RLU and the “10 nM FLuc-N-HiBiT Enz, Mean” value ([1]; M (Enz) -9.97) was 394.1 RLU. The “10 nM FLuc-N-HiBiT Enz, Mean” value ([1]; M (Enz) -10.44) was 391.2 RLU, the “10 nM FLuc-N-HiBiT Enz, Mean” value ([1]; M (Enz) -10.92) was 387.6 RLU and the “10 nM FLuc-N-HiBiT Enz, Mean” value ([1]; M (Enz) -11.40) was 382.5 RLU. The “pIC50, FLuc-C-HiBiT (10 nM)” value ([2]; 10 μM ATP) was 7.95 ± 0.02, the “Standard assay statistics Ave RLU” value [2, 3] was 48.5 RLU and the “Standard assay statistics S:B” value [2, 3] was 0.0352. The “Standard assay statistics S:N” value [2, 3] was -14.1, the “Standard assay statistics Z’” value [2, 3] was 0.761 and the “10 nM FLuc-C-HiBiT Enz, Mean” value ([2]; M (Enz) -4.24) was 3.7 RLU. The “10 nM FLuc-C-HiBiT Enz, Mean” value ([2]; M (Enz) -4.72) was 3.6 RLU, the “10 nM FLuc-C-HiBiT Enz, Mean” value ([2]; M (Enz) -5.19) was 3.8 RLU and the “10 nM FLuc-C-HiBiT Enz, Mean” value ([2]; M (Enz) -5.67) was 4.4 RLU. For the same molecule, the “10 nM FLuc-C-HiBiT Enz, Mean” value ([2]; M (Enz) -6.15) was 4.9 RLU, the “10 nM FLuc-C-HiBiT Enz, Mean” value ([2]; M (Enz) -6.63) was 6.7 RLU and the “10 nM FLuc-C-HiBiT Enz, Mean” value ([2]; M (Enz) -7.10) was 13.5 RLU. The “10 nM FLuc-C-HiBiT Enz, Mean” value ([2]; M (Enz) -7.58) was 42.4 RLU, the “10 nM FLuc-C-HiBiT Enz, Mean” value ([2]; M (Enz) -8.06) was 126.0 RLU and the “10 nM FLuc-C-HiBiT Enz, Mean” value ([2]; M (Enz) -8.53) was 177.8 RLU.
